Results from PMC8230474, “Synthesis of Novel Acyl Derivatives of 3-(4,5,6,7-Tetrabromo-1H-benzimidazol-1-yl)propan-1-ols—Intracellular TBBi-Based CK2 Inhibitors with Proapoptotic Properties” (International Journal of Molecular Sciences, 2021).
Like-named read-outs stand apart in the source and are kept apart here.

Columns and labels:
[1] = biological target: human CK2 catalytic subunit (CK2α) (Homo sapiens, UniProt P68400); assay: Radiometric (P81 filter isotopic) kinase assay, CK2 catalytic subunit; format: biochemical; conditions: read-out: Residual Activity of the Enzyme CK2α
human CK2 catalytic subunit (CK2α), sequence (P68400 whole entry): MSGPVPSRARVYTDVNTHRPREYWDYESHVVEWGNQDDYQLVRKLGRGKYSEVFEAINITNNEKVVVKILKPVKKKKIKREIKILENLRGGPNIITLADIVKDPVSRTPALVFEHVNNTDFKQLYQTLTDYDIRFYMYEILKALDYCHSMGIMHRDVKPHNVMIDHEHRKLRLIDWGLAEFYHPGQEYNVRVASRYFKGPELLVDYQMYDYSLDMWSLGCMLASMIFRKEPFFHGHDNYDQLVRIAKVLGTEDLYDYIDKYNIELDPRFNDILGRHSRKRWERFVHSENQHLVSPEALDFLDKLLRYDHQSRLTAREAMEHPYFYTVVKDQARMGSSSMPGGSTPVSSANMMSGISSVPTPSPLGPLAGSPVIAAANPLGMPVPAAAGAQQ

[2] = biological target: CK2 holoenzyme (CK2 α2β2) (Homo sapiens, UniProt P68400); assay: Radiometric (P81 filter isotopic) kinase assay, CK2 holoenzyme; format: biochemical; conditions: read-out: Residual Activity of the Enzyme CK2 α2β2
CK2 holoenzyme (CK2 α2β2), sequence (P68400 whole entry): as above
CK2 holoenzyme (CK2 α2β2), sequence (P67870 whole entry partner): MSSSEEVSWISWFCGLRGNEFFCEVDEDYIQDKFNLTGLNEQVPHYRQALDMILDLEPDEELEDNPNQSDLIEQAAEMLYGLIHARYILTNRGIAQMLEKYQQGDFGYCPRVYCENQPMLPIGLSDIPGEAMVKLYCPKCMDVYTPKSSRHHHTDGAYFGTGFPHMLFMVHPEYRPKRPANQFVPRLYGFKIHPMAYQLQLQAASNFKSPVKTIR

PIM1 = PIM1 (Homo sapiens, UniProt P11309); assay: Radiometric (P81 filter isotopic) kinase assay, PIM1; format: biochemical; conditions: for Ki: calculated from IC50 by Cheng and Prusoff equation; for remaining activity at 5 µM / remaining activity at 10 µM: read-out: Residual Activity of the Enzyme PIM1
PIM1, sequence (P11309 whole entry, species assumed): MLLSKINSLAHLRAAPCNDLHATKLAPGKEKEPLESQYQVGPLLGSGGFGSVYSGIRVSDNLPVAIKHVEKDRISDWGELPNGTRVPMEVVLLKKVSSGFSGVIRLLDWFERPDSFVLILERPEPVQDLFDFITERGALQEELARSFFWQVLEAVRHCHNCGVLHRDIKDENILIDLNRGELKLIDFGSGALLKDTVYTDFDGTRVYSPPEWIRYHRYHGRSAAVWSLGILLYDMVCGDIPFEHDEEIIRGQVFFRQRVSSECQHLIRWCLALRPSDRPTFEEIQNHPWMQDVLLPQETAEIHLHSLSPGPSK

MCF-7 cells [3] = assay: MTT viability assay, MCF-7; format: cell-based; conditions: Homo sapiens, read-out: EC50 ± SD MCF-7
Protocol: (§1) To test the anti-cancer effect of the TBBi derivatives, we treated the MCF-7 and MDA-MB-231 cells with the newly synthesized esters and previously reported compounds [34, 57] at the concentration range of 3.125 to 200 µM for 24 h, 48 h and 72 h. Additionally, the range of concentrations was extended by additional lower concentrations in MCF-7 for compound 4 with the minimum concentration of 0.195 µM. […] The EC50 values, describing the half maximal effective concentration of each tested compound, were calculated and are summarized in Table 2. […] We observed that the EC50 values increase in both cell lines with the elongation of fatty acids chain length in the tested compounds, thus strongly correlating with the decrease of their solubility in biological media as characterized by logS parameter (Table 2). The second reason for the decreased biological activity of the longer-chain aliphatic esters might be attributed to their greater resistance toward intracellular hydrolysis, which directly influences the slower release of the active form of the corresponding CK2 inhibitors. […] However, none of the tested compounds, except for compound 5, decreased the viability of both cell lines in a time-dependent manner (Figure 4).
(§2) MCF-7 and MDA-MB-231 were cultured in high-glucose Dulbecco’s modified Eagle medium (DMEM, Lonza, Basel, Switzerland) supplemented with 10% fetal bovine serum (FBS, EuroClone, Siziano, Italy)), 2 mM L-glutamine, and antibiotics (100 U/mL penicillin, 100 µg/mL streptomycin) (Sigma-Aldrich Chemical Company (St. Louis, MO, USA). Cells were grown in 75-cm^2 cell culture flasks (Sarstedt, Nümbrecht, Germany) in a humidified atmosphere of CO2/air (5%/95%) at 37 °C. All the experiments were performed in exponentially growing cultures. Stock solutions of the test compounds were prepared in DMSO and stored in −80 °C for a maximum of one month. For the cytotoxicity studies, stock solutions of the tested compounds were diluted 200-fold with the proper culture medium to obtain the final concentrations.
(§3) After incubation with the tested compounds, an MTT test was performed as described previously. Optical densities were measured at 570 nm using BioTek microplate reader (Winooski, VT, USA). All measurements were carried out in a minimum of three biological replicates.

MDA-MB-231 cells [4] = assay: MTT viability assay, MDA-MB-231; format: cell-based; conditions: Homo sapiens, read-out: EC50 ± SD MDA-MB-231
Protocol: as §1, §2, §3

MCF-7 cells [5] = assay: Annexin V-FITC/PI flow cytometry, MCF-7; format: cell-based, human; conditions: MCF-7, 72 h treatment, compound at its EC50
Protocol: Additionally, assaying annexin V-binding to phosphatidylserine by means of flow cytometry confirmed that derivatives 3c and 6a–c induced apoptosis in both cell lines (Figure 9, Figure S3).
MCF-7 cells were seeded in six-well plates at 1.5 × 10^5 cells/well. […] Then, the plates were incubated for 24 h or 72 h. After exposure to the examined compounds, the floating cells were collected, and monolayer cell culture was trypsinized. The cells were centrifugated at 200× g at 4 °C for 5 min, washed twice in cold phosphate-buffered saline (PBS), and subsequently suspended in binding buffer at 1 × 10^6 cells/mL. Subsequently, 100-μL aliquots of the cell suspension were labeled according to the kit manufacturer’s instructions. Briefly, annexin V-fluorescein isothiocyanate and propidium iodide (BD Biosciences, Pharmingen, San Diego, CA, USA) were added to the cell suspension, and the mixture was vortexed and then incubated for 15 min at RT in the dark. A cold binding buffer (900 μL) was then added and the cells were vortexed again and kept on ice. Flow cytometric measurements were performed within 1 h after labeling. Viable, necrotic, early, and late apoptotic cells were detected by flow cytometry using CyFlow Cube 8 (Sysmex, Norderstedt, Germany) flow cytometer.

MCF-7 cells [6] = assay: Cell cycle progression by flow cytometry, MCF-7; format: cell-based, human; conditions: MCF-7, 72 h, compound at its EC50
[7] = test system: protein kinase CK2 in MCF-7 cells; assay: Intracellular inhibition of CK2, Western blot of p-Ser529 p65 and p-Ser129 Akt1, MCF-7; format: cell-based, human
Text: (§4) We observed an inhibition of CK2 in both cell lines; however, the lower efficiency of CK2 inhibition was detected in MCF-7 considering the extent of Akt1 phosphorylation. The relative level of the phosphorylation of the tested proteins in MDA-MB-231 cells was in the range of 0.32 to 0.80 for p-Ser529 p65 and 0.41 to 0.73 for p-Ser129 Akt1, whereas in MCF-7 cells it was in the range of 0.33 to 0.78 for p-Ser529 p65 and 0.82 to 1.23 for p-Ser129 Akt1, respectively. The lowest phosphorylation levels of the tested proteins were detected in MDA-MB-231 cells for compound 6b with the relative level of 0.41 for Ser129 Akt1 as well as for compound 6c with the relative level of 0.32 for p-Ser529 p65. Among the tested proteins, the lowest extent of phosphorylation in MCF-7 cells was detected for 6b with the relative level of 0.33 for p-Ser529 p65, and for 6a with the relative level of 0.82 for Ser129 Akt1.
Considering an inefficient inhibition of CK2 in MCF-7, we evaluated an inhibition of CK2 in this cell line after 72 h. […] The relative levels were in the range of 0.17 to 0.8 for p-Ser529 p65 and 0.19 to 0.79 for p-Ser129 Akt1.
The MCF-7 cells growing exponentially were seeded at 4.8 × 10^5 cells in 6-cm-diameter plates. Subsequently, compounds were added in a final concentration of 0.5% DMSO. After incubation, floating cells were collected and cell monolayer was washed three times in ice-cold PBS and the cells were scraped, combined with floating cells and lysed in RIPA buffer consisting of 50 mM Tris-HCl (pH 7.4), 1% NP-40, 0.5% sodium deoxycholate, 0.1% SDS, 150 mM NaCl, 2 mM EDTA, 50 mM NaF, 0.2 mM sodium orthovanadate, and protease inhibitors cocktail. Subsequently, cells were sonicated (three times for 15 s), centrifuged at 20,000× g for 15 min at 4 °C, and the supernatants were collected and stored at −80 °C. The protein concentration was determined using Bradford assay. Then, supernatants were incubated with the Laemmli buffer for 5 min at 98 °C. Equal amounts of total protein (10 to 20 μg) were analyzed by SDS-PAGE, and subsequently, Western blotting was performed using primary antibodies in blocking buffer containing either 3% BSA (bovine serum albumin) or 3% milk in TBS-T (Tris-buffered saline (10 mM Tris-HCl (pH 8), 150 mM NaCl) containing 0.1% Tween 20 or 0.2% Triton X-100) for 1 h. After overnight incubation at 4 °C with the primary antibodies, the membranes were washed with TBS-T and probed with the respective secondary antibodies. The ECL substrate was used for detection and immunoblots were scanned using G Box Chemi (Syngene, Cambridge, UK) with GeneSys software (Syngene, Cambridge, UK) or were developed with the use of X-rays films. UV-irradiated Jurkat cells were used as a positive control in Western blot analysis of c-PARP1. After 2 h, one-minute UV-irradiated Jurkat leukemic T-cell line was lysed and subjected to analysis.
For densitometry, immunoblots were quantified using the Fiji distribution of the ImageJ 1.52a software (National Institutes of Health, Bethesda, MD, USA, and the University of Wisconsin, Madison, WI, USA). Phosphorylated protein densities were normalized to GAPDH densities, assuming 1 for untreated cells and then they were converted to a percent of the appropriate control.

[8] = test system: protein kinase CK2 in MDA-MB-231 cells; assay: Intracellular inhibition of CK2, Western blot of p-Ser529 p65 and p-Ser129 Akt1, MDA-MB-231; format: cell-based, human; conditions: MDA-MB-231, 24 h treatment, compound at its 72-h EC50, relative to untreated control
Text: as §4
The MCF-7 cells growing exponentially were seeded at 4.8 × 10^5 cells in 6-cm-diameter plates. Subsequently, compounds were added in a final concentration of 0.5% DMSO. […] The protein concentration was determined using Bradford assay. […]
For densitometry, immunoblots were quantified using the Fiji distribution of the ImageJ 1.52a software (National Institutes of Health, Bethesda, MD, USA, and the University of Wisconsin, Madison, WI, USA). […]

MDA-MB-231 cells [9] = assay: Cleaved PARP1 Western blot, MDA-MB-231; format: cell-based, human; conditions: MDA-MB-231, 24-h treatment, compound at its EC50, untreated cells = one relative unit
[10] = set-up: method as in PMID 8876860, PMID 9760686; conditions: higher than the parent anti-herpesvirus agent; cited from earlier work
[11] = MCF-7, 72 h treatment, compound at its EC50, relative to untreated control

SMILES | Ki (PIM1) [µM] | EC50 (MCF-7 cells [3]; MCF7, 24 h) [µM] | EC50 (MCF-7 cells [3]; MCF7, 48 h) [µM] | EC50 (MCF-7 cells [3]; MCF7, 72 h) [µM] | EC50 (MDA-MB-231 cells [4]; 24 h) [µM] | EC50 (MDA-MB-231 cells [4]; 48 h) [µM] | EC50 (MDA-MB-231 cells [4]; 72 h) [µM] | cells in G1 (MCF-7 cells [6]) [%] | cells in G2M (MCF-7 cells [6]) [%] | cells in S (MCF-7 cells [6]) [%] | remaining activity at 5 µM ([1]; 5 µM compound) [%] | remaining activity at 10 µM ([1]; 10 µM compound) [%] | remaining activity at 5 µM ([2]; 5 µM compound) [%] | remaining activity at 10 µM ([2]; 10 µM compound) [%] | remaining activity at 5 µM (PIM1; 5 µM compound) [%] | remaining activity at 10 µM (PIM1; 10 µM compound) [%] | melting point [°C] | also measured
Brc1c(Br)c(Br)c2[nH]cnc2c1Br [Compound 1, 4,5,6,7-tetrabromo-1H-benzimidazole, reference compound] | 0.27 | 20.8 ± 1.49 | 18.8 ± 1.6 | 16.9 ± 1.36 | 51.9 ± 14.4 | 25.1 ± 2.04 | 24.9 ± 0.25 | 57.7 | 17.2 | 25.1 | – | – | – | – | – | – | – | remaining activity at 5 µM [1]: 19.3 ± 0.2%; remaining activity at 10 µM [1]: 12.4 ± 0.1%; remaining activity at 5 µM [2]: 9.6 ± 2.6%; remaining activity at 10 µM [2]: 5 ± 1.2%; remaining activity at 5 µM (PIM1): 11.2 ± 0.2%; remaining activity at 10 µM (PIM1): 5.7 ± 0.5%; necrotic cells (of total cells) (MCF-7 cells [5]): 25%
CCCC(=O)OCCCn1c(C)nc2c(Br)c(Br)c(Br)c(Br)c21 [Compound 6a, 3-(4,5,6,7-Tetrabromo-2-methyl-1H-benzimidazol-1-yl)propyl butanoate] | 1.94 ± 0.16 | 20.2 ± 1.74 | 18.1 ± 0.52 | 16.5 ± 1.13 | 52.2 ± 11.7 | 20.5 ± 1.97 | 16.9 ± 4.07 | 56.3 | 18.5 | 25.2 | 81.5 ± 8 | 68.4 ± 9.8 | 75.6 ± 5.9 | 49.6 ± 0.8 | 38.8 ± 3.1 | 19 ± 0.1 | 81 to 82 | relative level of p-Ser129 Akt1 ([7]; MCF-7, 24 h treatment, compound at its 72-h EC50, relative to untreated control): 0.82; relative level of p-Ser129 Akt1 [7, 11]: 0.30; relative level of p-Ser529 p65 [7, 11]: 0.19
CCCCCCCC(=O)OCCCn1c(C)nc2c(Br)c(Br)c(Br)c(Br)c21 [Compound 6c, 3-(4,5,6,7-Tetrabromo-2-methyl-1H-benzimidazol-1-yl)propyl octanoate] | – | 25.6 ± 12.3 | 20.5 ± 2.92 | 14.8 ± 2.14 | 61.3 ± 2.23 | 29.8 ± 9.85 | 21.3 ± 2.24 | 58.9 | 13.4 | 27.7 | 89.9 ± 5.2 | 84.3 ± 10.4 | 90.2 ± 4.7 | 80.8 ± 1.9 | 95.2 ± 9.4 | 79.8 ± 8.6 | 61 to 65 | relative level of p-Ser529 p65 [8]: 0.32; relative level of c-PARP1 (MDA-MB-231 cells [9]): 7.14
CC(=O)OCC(CCn1cnc2cnc(N)nc21)COC(C)=O [famciclovir] | – | – | – | – | – | – | – | – | – | – | – | – | – | – | – | – | – | bioavailability relative to parent penciclovir [10]: 15 fold
